Assay type in all cases: cell-based
Data set [1] relates to Escherichia coli MCR-1 Af 45. The note with it: MCR-1 Af 45. The protocol: (§1) Lyophilized peptides were weighed on a Microbalance (Mettler MT5) and dissolved in sterile water to a final concentration of 1 mg/mL. Stock solutions were kept at +4° C., light protected.
(§2) The selective antimicrobial activities of the peptides were determined in 96-well plates (Greiner, polystyrene) by the standard CLSI broth microdilution method (Clinical and Laboratory Standards Institute. Methods for Dilution Antimicrobial Susceptibility Tests for Bacteria That Grow Aerobically; Approved Standard-Ninth Edition. CLSI document M07-A9 (ISBN 1-56238-783-9 [Print]; ISBN 1-56238-784-7 [Electronic]). Clinical and Laboratory Standards Institute, 950 West Valley Road, Suite 2500, Wayne, Pennsylvania 19087, USA, 2012) with slight modifications.
(§3) Colonies of the microorganisms were diluted in saline (0.85%, NaCl) and adjusted using a McFarland reader (bioMérieux SA, Marcy-l'Etoile, France) to 0.5 McFarland standard. Subsequently, the bacterial suspension was diluted in Mueller-Hinton II (MHII, cation adjusted) broth to give approximately 5×10^5 colony forming units (CFU/mL).
(§4) Inocula of the microorganisms were diluted into Mueller-Hinton II (MH, cation adjusted) broth and compared with a 0.5 McFarland standard to give appr. 10^6 colony forming units (CFU)/mL. Aliquots (90 μl) of inoculate were added to 10 μl of water+P-80 (Polysorbate 80, 0.002% final concentration) containing the peptide in serial two-fold dilutions at 10 fold final concentration. The following microorganisms were used to determine antibiotic selectivity of the peptides: Escherichia coli ATCC 25922, Escherichia coli MCR-1 Af 45 and Klebsiella pneumoniae SSI3010. Antimicrobial activities of the peptides were expressed as the minimal inhibitory concentration (MIC) in μg/mL at which no visible growth was observed after 18-20 hours of incubation at 35° C.

Data set [2] concerns Escherichia coli ATCC 25922. The settings on record: ATCC 25922. The protocol:
as §1, §2, §3, §4

Data set [3] concerns Klebsiella pneumoniae SSI3010. The settings on record: SSI3010. The protocol:
as §1, §2, §3, §4

For data set [4], the system named is human red blood cells (hRBC). The settings on record: red cells of human, 1 h, 200 μg/mL. The protocol:
Lyophilized peptides were weighed on a Microbalance (Mettler MT5) and dissolved in sterile water to a final concentration of 1 mg/mL. Stock solutions were kept at +4° C., light protected. The peptides were tested for their hemolytic activity against human red blood cells (hRBC). Fresh hRBC were washed three times with phosphate buffered saline (PBS) and centrifuged for 5 min at 3000×g. Compounds (200 μg/mL) were incubated with 20% hRBC (v/v) for 1 h at 37° C. and shaking at 300 rpm. A value of 0% and 100% cell lyses, respectively, was determined by incubation of hRBC in the presence of PBS and 2.5% Triton X-100 in H2O, respectively. The samples were centrifuged, the supernatants were 8-fold diluted in PBS buffer and the optical densities (OD) were measured at 540 nm. The 100% lyses value (OD540H2O) gave an OD540 of approximately 0.5-1.0. Percent hemolysis was calculated as follows: (OD540peptide/OD540H2O)×100%.

Where a SMILES comes first, the peptide text is derived from it. Bridges are numbered along the chain shown (N, C = ends). [ ]: non-standard residue; d: D form. Hyp = O=C(O)[C@@H]1C[C@@H](O)CN1; Pen = CC(C)(S)[C@H](N)C(=O)O; dDab = NCC[C@@H](N)C(=O)O; Dab = NCC[C@H](N)C(=O)O

The values that follow come from US20240336654A1, “ANTIMICROBIAL PEPTIDOMIMETICS” (SPEXIS AG, priority 2021, published 2024).

Turning to `CC[C@H](C)[C@H](NC(=O)[C@@H]1C[C@@H](O)CN1C(=O)[C@@H](N)C(C)C)C(=O)N[C@@H]1C(=O)N[C@@H](Cc2ccc(O)cc2)C(=O)N[C@@H](CCC(=O)O)C(=O)N[C@@H](CC(N)=O)C(=O)N[C@@H](CCCNC(=N)N)C(=O)N[C@@H](CCN)C(=O)N[C@@H]([C@@H](C)O)C(=O)N[C@H](CCN)C(=O)N[C@@H](CCCCN)C(=O)N[C@@H](CCN)C(=O)N[C@@H](CCN)C(=O)N[C@H](C(=O)N[C@@H](Cc2ccc(O)cc2)C(=O)O)CSSC1(C)C` [Example 17, Val-Hyp-Ile-Pen-Tyr-Glu-Asn-Arg-Dab-Thr-^DDab-Lys-Dab-Dab-Cys-Tyr] (H-V[Hyp]I[Pen]YENR[Dab]T[dDab]K[Dab][Dab]CY-OH; disulfide 4-15), the “Escherichia coli MCR-1 Af45 MIC” value in data set [1] was determined as 0.25 µg/mL. In data set [2], the “Escherichia coli ATCC 25922 MIC” value was determined as 0.5 µg/mL. For the same compound, in data set [3], the “Klebsiella pneumoniae SSI3010 MIC” value turned out to be 0.5 µg/mL. Besides, the “Hemolysis at 0.2 g/L” value in data set [4] was below 1%.
For `CC[C@H](C)[C@H](NC(=O)[C@@H]1C[C@@H](O)CN1C(=O)[C@@H](N)C(C)C)C(=O)N[C@@H]1C(=O)N[C@@H](Cc2ccc(O)cc2)C(=O)N[C@@H](CC(N)=O)C(=O)N[C@@H](CC(N)=O)C(=O)N[C@@H](CCCNC(=N)N)C(=O)N[C@@H](CCN)C(=O)N[C@@H]([C@@H](C)O)C(=O)N[C@H](CCN)C(=O)N[C@@H](CCCCN)C(=O)N[C@@H](CCN)C(=O)N[C@@H](CCN)C(=O)N[C@H](C(=O)N[C@@H](Cc2ccc(O)cc2)C(=O)O)CSSC1(C)C` [Example 18, Val-Hyp-Ile-Pen-Tyr-Asn-Asn-Arg-Dab-Thr-^DDab-Lys-Dab-Dab-Cys-Tyr] (H-V[Hyp]I[Pen]YNNR[Dab]T[dDab]K[Dab][Dab]CY-OH; disulfide 4-15), the “Escherichia coli MCR-1 Af45 MIC” value in data set [1] was found to be 0.125 µg/mL. In addition, the “Escherichia coli ATCC 25922 MIC” value in data set [2] is 0.25 µg/mL. Further, in data set [3], the “Klebsiella pneumoniae SSI3010 MIC” value turned out to be 0.25 µg/mL. Also, the “Hemolysis at 0.2 g/L” value in data set [4] is given as below 1%.
For the compound `CC[C@H](C)[C@H](NC(=O)[C@@H]1C[C@@H](O)CN1C(=O)[C@@H](N)C(C)C)C(=O)N[C@@H]1C(=O)N[C@@H](Cc2ccc(O)cc2)C(=O)N[C@@H]([C@@H](C)O)C(=O)N[C@@H](CC(N)=O)C(=O)N[C@@H](CCCNC(=N)N)C(=O)N[C@@H](CCN)C(=O)N[C@@H](CC(N)=O)C(=O)N[C@H](CCN)C(=O)N[C@@H](CCCCN)C(=O)N[C@@H](CCN)C(=O)N[C@@H](CCN)C(=O)N[C@H](C(=O)N[C@@H](Cc2ccc(O)cc2)C(=O)O)CSSC1(C)C` [Example 19, Val-Hyp-Ile-Pen-Tyr-Thr-Asn-Arg-Dab-Asn-^DDab-Lys-Dab-Dab-Cys-Tyr] (H-V[Hyp]I[Pen]YTNR[Dab]N[dDab]K[Dab][Dab]CY-OH; disulfide 4-15), the “Escherichia coli MCR-1 Af45 MIC” value in data set [1] is 0.125 µg/mL. The “Escherichia coli ATCC 25922 MIC” value in data set [2] was 0.125 µg/mL. In addition, the “Klebsiella pneumoniae SSI3010 MIC” value in data set [3] is 0.25 µg/mL. Besides, the “Hemolysis at 0.2 g/L” value in data set [4] was below 1%.
Take `CC[C@H](C)[C@H](NC(=O)[C@@H]1C[C@@H](O)CN1C(=O)[C@@H](N)C(C)C)C(=O)N[C@@H]1C(=O)N[C@@H](Cc2ccc(O)cc2)C(=O)N[C@@H](CO)C(=O)N[C@@H](C)C(=O)N[C@@H](CCCNC(=N)N)C(=O)N[C@@H](CCN)C(=O)N[C@@H]([C@@H](C)O)C(=O)N[C@H](CCN)C(=O)N[C@@H](CCCCN)C(=O)N[C@@H](CCN)C(=O)N[C@@H](CCN)C(=O)N[C@H](C(=O)N[C@@H](Cc2ccc(O)cc2)C(=O)O)CSSC1(C)C` [Example 20, Val-Hyp-Ile-Pen-Tyr-Ser-Ala-Arg-Dab-Thr-^DDab-Lys-Dab-Dab-Cys-Tyr] (H-V[Hyp]I[Pen]YSAR[Dab]T[dDab]K[Dab][Dab]CY-OH; disulfide 4-15): the “Escherichia coli MCR-1 Af45 MIC” value in data set [1] was found to be 0.5 µg/mL. In addition, the “Escherichia coli ATCC 25922 MIC” value in data set [2] stood at 0.5 µg/mL. The “Klebsiella pneumoniae SSI3010 MIC” value in data set [3] was determined as 1 µg/mL. In addition, in data set [4], the “Hemolysis at 0.2 g/L” value is given as below 1%.
Consider `CC[C@H](C)[C@@H]1NC(=O)[C@H](CO)NC(=O)[C@H](Cc2ccc(O)cc2)NC(=O)[C@@H](NC(=O)[C@@H](NC(=O)[C@@H]2C[C@@H](O)CN2C(=O)[C@@H](N)C(C)C)[C@@H](C)CC)C(C)(C)SSC[C@@H](C(=O)N[C@@H](Cc2ccc(O)cc2)C(=O)O)NC(=O)[C@H](CCN)NC(=O)[C@H](CCN)NC(=O)[C@H](CCCCN)NC(=O)[C@@H](CCN)NC(=O)[C@H]([C@@H](C)O)NC(=O)[C@H](CCN)NC(=O)[C@H](CCCNC(=N)N)NC1=O` [Example 21, Val-Hyp-Ile-Pen-Tyr-Ser-Ile-Arg-Dab-Thr-^DDab-Lys-Dab-Dab-Cys-Tyr] (H-V[Hyp]I[Pen]YSIR[Dab]T[dDab]K[Dab][Dab]CY-OH; disulfide 4-15), for which the “Escherichia coli MCR-1 Af45 MIC” value in data set [1] amounted to 0.0625 µg/mL. In addition, the “Escherichia coli ATCC 25922 MIC” value in data set [2] is 0.0625 µg/mL. For the same compound, in data set [3], the “Klebsiella pneumoniae SSI3010 MIC” value is 0.125 µg/mL. The “Hemolysis at 0.2 g/L” value in data set [4] was below 1%.
Turning to `CC[C@H](C)[C@H](NC(=O)[C@@H]1C[C@@H](O)CN1C(=O)[C@@H](N)C(C)C)C(=O)N[C@@H]1C(=O)N[C@@H](Cc2ccc(O)cc2)C(=O)N[C@@H](CO)C(=O)N[C@@H](CCC(=O)O)C(=O)N[C@@H](CCCNC(=N)N)C(=O)N[C@@H](CCN)C(=O)N[C@@H]([C@@H](C)O)C(=O)N[C@H](CCN)C(=O)N[C@@H](CCCCN)C(=O)N[C@@H](CCN)C(=O)N[C@@H](CCN)C(=O)N[C@H](C(=O)N[C@@H](Cc2ccc(O)cc2)C(=O)O)CSSC1(C)C` [Example 22, Val-Hyp-Ile-Pen-Tyr-Ser-Glu-Arg-Dab-Thr-^DDab-Lys-Dab-Dab-Cys-Tyr] (H-V[Hyp]I[Pen]YSER[Dab]T[dDab]K[Dab][Dab]CY-OH; disulfide 4-15), the “Escherichia coli MCR-1 Af45 MIC” value in data set [1] is 0.25 µg/mL. In addition, the “Escherichia coli ATCC 25922 MIC” value in data set [2] amounted to 0.5 µg/mL. Besides, in data set [3], the “Klebsiella pneumoniae SSI3010 MIC” value was found to be 0.5 µg/mL. For the same compound, the “Hemolysis at 0.2 g/L” value in data set [4] is below 1%.
`CC[C@H](C)[C@H](NC(=O)[C@@H]1C[C@@H](O)CN1C(=O)[C@@H](N)C(C)C)C(=O)N[C@@H]1C(=O)N[C@@H](Cc2ccc(O)cc2)C(=O)N[C@@H](CO)C(=O)N[C@@H](CC(=O)O)C(=O)N[C@@H](CCCNC(=N)N)C(=O)N[C@@H](CCN)C(=O)N[C@@H]([C@@H](C)O)C(=O)N[C@H](CCN)C(=O)N[C@@H](CCCCN)C(=O)N[C@@H](CCN)C(=O)N[C@@H](CCN)C(=O)N[C@H](C(=O)N[C@@H](Cc2ccc(O)cc2)C(=O)O)CSSC1(C)C` [Example 23, Val-Hyp-Ile-Pen-Tyr-Ser-Asp-Arg-Dab-Thr-^DDab-Lys-Dab-Dab-Cys-Tyr] (H-V[Hyp]I[Pen]YSDR[Dab]T[dDab]K[Dab][Dab]CY-OH; disulfide 4-15; N-terminus assumed): the “Escherichia coli MCR-1 Af45 MIC” value in data set [1] was 0.25 µg/mL. The “Escherichia coli ATCC 25922 MIC” value in data set [2] amounted to 0.5 µg/mL. Besides, in data set [3], the “Klebsiella pneumoniae SSI3010 MIC” value was 0.5 µg/mL. For the same compound, in data set [4], the “Hemolysis at 0.2 g/L” value is given as below 1%.
With `CC[C@H](C)[C@H](NC(=O)[C@@H]1C[C@@H](O)CN1C(=O)[C@@H](N)C(C)C)C(=O)N[C@@H]1C(=O)N[C@@H](Cc2ccc(O)cc2)C(=O)N[C@@H](CO)C(=O)N[C@@H](CO)C(=O)N[C@@H](CCCNC(=N)N)C(=O)N[C@@H](CCN)C(=O)N[C@@H]([C@@H](C)O)C(=O)N[C@H](CCN)C(=O)N[C@@H](CCCCN)C(=O)N[C@@H](CCN)C(=O)N[C@@H](CCN)C(=O)N[C@H](C(=O)N[C@@H](Cc2ccc(O)cc2)C(=O)O)CSSC1(C)C` [Example 24, Val-Hyp-Ile-Pen-Tyr-Ser-Ser-Arg-Dab-Thr-^DDab-Lys-Dab-Dab-Cys-Tyr] (H-V[Hyp]I[Pen]YSSR[Dab]T[dDab]K[Dab][Dab]CY-OH; disulfide 4-15), the “Escherichia coli MCR-1 Af45 MIC” value in data set [1] was determined as 0.125 µg/mL. In addition, the “Escherichia coli ATCC 25922 MIC” value in data set [2] worked out at 0.125 µg/mL. In addition, the “Klebsiella pneumoniae SSI3010 MIC” value in data set [3] amounted to 0.25 µg/mL. Further, in data set [4], the “Hemolysis at 0.2 g/L” value is below 1%.
